Results on 13 compounds are retold here after ChEMBL document CHEMBL1201862, “PubChem BioAssay data set” (2004).

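Protocol summary: plate cells (96-well), add compound at 5 concentrations, incubate 48 h, interpolate endpoints linearly. Here, GI50 denotes the concentration required for 50% inhibition of growth.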 The source made the active and inactive calls. Cut-off read from the data, not from the text of the source: active = GI50 up to about 1.1 µM and inactive = higher. Bounds are passed on as bounds.

Among the test systems are HOP-62; SW-620; Malme-3M; A549; K562; HT-29; RXF 393; TK-10; NCI-H460; IGROV-1; UACC-257; SNB-75; SNB-19; OVCAR-8; A498; HCT-116; OVCAR-4.
Common to all, as to test: inhibition of tumour cell growth, NCI panel, 48 h

Regarding `Cc1nc(-n2nc(-c3ccccc3)cc2-c2ccccc2)sc1C(=O)/C=C/c1cccc([N+](=O)[O-])c1`, the GI50 in the assay with HOP-62 is 15.9 µM (inactive); in the assay on SW-620, > 10 µM (inactive); in the assay with Malme-3M, 19.2 µM (inactive); with A549, 17.5 µM (inactive); in the assay with K562, 8.75 µM (inactive); in the assay on HT-29, 12.7 µM (inactive). For the same compound, the GI50 is 14.1 µM (inactive) in the assay with RXF 393; 36 µM (inactive) in the assay with TK-10; 25.8 µM (inactive) with NCI-H460; 24.1 µM (inactive) with IGROV-1; 22.5 µM (inactive) with UACC-257; 5.73 µM (inactive) with SNB-75. Further, the GI50 with SNB-19 was 11.4 µM (inactive); in the assay on OVCAR-8, 28.4 µM (inactive); in the assay on A498, 20.2 µM (inactive).
As to `CCCCCC(=O)OC[n+]1ccc2c(C)c3[nH]c4ccccc4c3c(C)c2c1`, the GI50 is 1.24 µM (inactive) in the assay with HOP-62; 0.446 µM (active) in the assay on SW-620; 1.54 µM (inactive) in the assay on Malme-3M; 0.586 µM (active) with A549; 0.482 µM (active) in the assay on HT-29; 1.23 µM (inactive) with RXF 393. Moreover, the GI50 in the assay with TK-10 is 3.08 µM (inactive); in the assay on HCT-116 it was 0.373 µM (active); with NCI-H460, 0.142 µM (active); in the assay on IGROV-1, 1.75 µM (inactive); in the assay on UACC-257, 1.57 µM (inactive); with SNB-75 it was 1.49 µM (inactive). The values for the GI50 in the assay with OVCAR-8, with OVCAR-4 and in the assay on A498 were 0.474 µM (active), 1.1 µM (active) and 1.35 µM (inactive), respectively.
Regarding `C/C(=N\NC(=O)CC(=O)Nc1ccc(C)cc1)c1cc2ccccc2oc1=O`, the GI50 in the assay on HOP-62 is > 100 µM (inactive); in the assay on SW-620 it was > 100 µM (inactive); in the assay on Malme-3M, 38.3 µM (inactive); in the assay on A549 it was > 100 µM (inactive); in the assay on K562 it was > 100 µM (inactive); with HT-29, > 100 µM (inactive). Moreover, the GI50 with RXF 393 was 89.1 µM (inactive); with TK-10 it was > 100 µM (inactive); in the assay with HCT-116, > 100 µM (inactive); in the assay with NCI-H460, > 100 µM (inactive); in the assay with IGROV-1, > 100 µM (inactive); with UACC-257, > 100 µM (inactive). Moreover, the GI50 was 20.2 µM (inactive) with SNB-75, > 100 µM (inactive) in the assay on SNB-19 and > 100 µM (inactive) in the assay with OVCAR-8.
For `CN(C(=O)c1cccs1)C(=S)N1CCN(c2ccccn2)CC1`, the GI50 in the assay with HOP-62, in the assay with SW-620, in the assay with Malme-3M, with A549, with K562 and with HT-29 was > 100 µM (inactive) each time. Moreover, the GI50 in the assay on RXF 393, in the assay on TK-10, in the assay on HCT-116, in the assay with NCI-H460, with IGROV-1 and with UACC-257 was > 100 µM (inactive) in each case. In addition, the GI50 in the assay with SNB-75, with SNB-19, with OVCAR-8 and in the assay with OVCAR-4 was > 100 µM (inactive) throughout.
As to `CCOC(=O)C1COc2cc(-c3cc(=O)c4ccccc4o3)ccc2O1` (configuration not stated), the GI50 in the assay on SW-620 was > 100 µM (inactive); in the assay on Malme-3M, > 100 µM (inactive); with A549, > 100 µM (inactive); in the assay on K562, > 100 µM (inactive); in the assay with HT-29 it was 22.8 µM (inactive); with RXF 393, 47.8 µM (inactive). Further, the GI50 with TK-10 was > 100 µM (inactive); in the assay with HCT-116, > 100 µM (inactive); with NCI-H460 it was 33.8 µM (inactive); in the assay with IGROV-1, 66.8 µM (inactive); with SNB-75, 47.9 µM (inactive); in the assay with SNB-19, > 100 µM (inactive). In addition, the values for the GI50 with OVCAR-8 and in the assay on OVCAR-4 were 24.7 µM (inactive) and 42.9 µM (inactive), respectively.
For the compound `CC(C)(Oc1ccc(C(=O)c2ccc(Cl)cc2)cc1Cl)C(=O)Nc1c(Cl)cccc1Cl`, the GI50 in the assay on HOP-62 is > 100 µM (inactive); in the assay with SW-620, > 100 µM (inactive); with Malme-3M, > 100 µM (inactive); in the assay with A549, > 100 µM (inactive); in the assay on K562 it was 5.64 µM (inactive); in the assay with HT-29 it was > 100 µM (inactive). Also, the GI50 with RXF 393 was < 0.01 µM (active); in the assay with TK-10, > 100 µM (inactive); with HCT-116, > 100 µM (inactive); in the assay on NCI-H460, 5.77 µM (inactive); in the assay on IGROV-1, > 100 µM (inactive); with UACC-257, > 100 µM (inactive). Moreover, the GI50 in the assay on SNB-19, in the assay on OVCAR-8 and in the assay on A498 was > 100 µM (inactive) in each case.
As to `CC(=O)c1ccc(N2C(=O)C3c4[nH]c5ccccc5c4C4CCC(C(C)(C)C)CC4C3C2=O)cc1` (configuration not stated), the GI50 is 19.5 µM (inactive) with HOP-62; 21.7 µM (inactive) in the assay on SW-620; 16.7 µM (inactive) in the assay with Malme-3M; 19.6 µM (inactive) with A549; 35.7 µM (inactive) with K562; 17.3 µM (inactive) in the assay with HT-29. In addition, the GI50 in the assay on RXF 393 was 17.9 µM (inactive); in the assay with HCT-116, 16.6 µM (inactive); with IGROV-1, 40.6 µM (inactive); with UACC-257 it was 35.2 µM (inactive); in the assay with SNB-75 it was 22.6 µM (inactive); with SNB-19 it was 62.2 µM (inactive). In addition, the GI50 in the assay with OVCAR-8 is 22.4 µM (inactive); in the assay with OVCAR-4, 30.9 µM (inactive); in the assay with A498, 22.5 µM (inactive).
Consider `Cc1c(C(=O)CC(=O)C(=O)Nc2cccc(C(F)(F)F)c2)[n+]([O-])c2ccccc2[n+]1[O-]`, for which the GI50 with HOP-62 was 23.6 µM (inactive); in the assay on SW-620, 3.54 µM (inactive); with Malme-3M, 4.22 µM (inactive); in the assay on A549, 14.4 µM (inactive); in the assay on K562, 3.8 µM (inactive); in the assay with HT-29, 3.79 µM (inactive). Also, the GI50 with RXF 393 is 11.5 µM (inactive); in the assay with TK-10 it was 28.2 µM (inactive); in the assay with HCT-116, 3.06 µM (inactive); in the assay on NCI-H460, 2.97 µM (inactive); with IGROV-1 it was 2.74 µM (inactive); in the assay on UACC-257, 2.56 µM (inactive). Further, the GI50 with SNB-75 is 3.04 µM (inactive); with SNB-19 it was 4.88 µM (inactive); in the assay with OVCAR-8, 2.45 µM (inactive); with OVCAR-4 it was 2.42 µM (inactive); in the assay on A498 it was 20.7 µM (inactive).
Regarding `O=C(/C=C/c1ccco1)N1CCN(Cc2ccccc2)CC1`, the GI50 with HOP-62, in the assay on SW-620, in the assay on A549, in the assay with HT-29, with TK-10 and in the assay on HCT-116 was > 100 µM (inactive) in each case. Also, the GI50 in the assay on NCI-H460, in the assay on IGROV-1, with UACC-257, in the assay on SNB-75, in the assay on SNB-19 and in the assay with OVCAR-8 was > 100 µM (inactive) each time. In addition, the GI50 in the assay with OVCAR-4 and in the assay with A498 was > 100 µM (inactive) each time.
As for `O=C(COc1ccc(Br)cc1Br)N1N=C(c2ccc([N+](=O)[O-])o2)CC1(O)c1ccccc1` (configuration not stated), the GI50 is 13.2 µM (inactive) in the assay with HOP-62; 13.1 µM (inactive) with SW-620; 10.7 µM (inactive) in the assay on Malme-3M; 8.65 µM (inactive) in the assay on A549; 4.7 µM (inactive) in the assay on K562; 13.4 µM (inactive) with HT-29. Moreover, the GI50 is 2.53 µM (inactive) in the assay with RXF 393; 11.9 µM (inactive) in the assay with HCT-116; 6.24 µM (inactive) in the assay on NCI-H460; 19.5 µM (inactive) with IGROV-1; 23.1 µM (inactive) in the assay on UACC-257; 14.1 µM (inactive) in the assay with SNB-75. Further, the GI50 in the assay with SNB-19 is 19.3 µM (inactive); in the assay with OVCAR-8, 9.89 µM (inactive); with OVCAR-4, 17 µM (inactive); with A498, 10.2 µM (inactive).
In the case of `Cn1c2c(c3ccccc31)C1CCCCCCC1C1C(=O)OC(=O)C21` (configuration not stated), the GI50 in the assay on SW-620 is 32.4 µM (inactive); in the assay with Malme-3M it was 11.9 µM (inactive); in the assay on A549, 36.9 µM (inactive); in the assay on K562 it was 31.3 µM (inactive); with HT-29, 30.1 µM (inactive); in the assay on RXF 393, 21.2 µM (inactive). The GI50 is > 100 µM (inactive) in the assay with TK-10; 36.8 µM (inactive) in the assay with NCI-H460; 27.4 µM (inactive) with IGROV-1; 30.3 µM (inactive) in the assay on SNB-75; 44.8 µM (inactive) in the assay on SNB-19; 31.9 µM (inactive) in the assay with OVCAR-8. Also, the GI50 was 53.8 µM (inactive) in the assay on OVCAR-4 and 72.1 µM (inactive) in the assay with A498.
For `CN(C)c1ccc(/C=C/c2ccc(/C=C/c3ccc(N(C)C)cc3)cc2)cc1`, the GI50 in the assay on SW-620 was > 100 µM (inactive); in the assay with Malme-3M, 13 µM (inactive); with A549, 95.9 µM (inactive); in the assay with K562, 75.5 µM (inactive); in the assay on HT-29, > 100 µM (inactive); in the assay with RXF 393, > 100 µM (inactive). Moreover, the GI50 is > 100 µM (inactive) with TK-10; 83.9 µM (inactive) in the assay with HCT-116; > 100 µM (inactive) with NCI-H460; > 100 µM (inactive) in the assay with IGROV-1; 90.4 µM (inactive) in the assay on UACC-257; > 100 µM (inactive) in the assay on SNB-75. Further, the GI50 in the assay with SNB-19 is 78.5 µM (inactive); in the assay on OVCAR-8, > 100 µM (inactive); in the assay with OVCAR-4 it was > 100 µM (inactive); with A498, > 100 µM (inactive).
For the compound `CC1C(=O)O[C@H]2C1CC[C@@]1(C)[C@H](O)CC[C@@]13C[C@]2(O)OO3` (some centres not stated), the GI50 in the assay with HOP-62, with SW-620, in the assay on Malme-3M, with A549, with K562 and in the assay on HT-29 was > 100 µM (inactive) each time. Moreover, the GI50 in the assay on TK-10, in the assay with HCT-116, with NCI-H460, in the assay with IGROV-1, in the assay on UACC-257 and with SNB-19 was > 100 µM (inactive) each time. Moreover, the GI50 in the assay with OVCAR-8, in the assay with OVCAR-4 and with A498 was > 100 µM (inactive) in each case.
